Experimental data as given in patent US12391733B2, “Stapled intracellular-targeting antimicrobial peptides to treat infection” (priority 2016, dated 2025).
Positions of bridges follow the written chain, without caps; N, C: chain ends. Non-standard residues stand in square brackets, D forms with d. Residues, ends and D or L forms follow the SMILES beside them. R8 = C=CCCCCCC[C@@](C)(N)C(=O)O; S5 = C=CCCC[C@](C)(N)C(=O)O

Tests used:
[1] = circular dichroism; conditions: 10 mM phosphate buffer; pH 7.4; ns °C; 100 uM
[2] = tested on: E. coli; format: cell-based, Escherichia coli; conditions: for Antimicrobial Activity NIC (μg/ml) E. coli: Table 1, microbroth dilution, refined MHB, 20-24 hours at 37° C.
Experimental: Antimicrobial Activity Assay The following microbroth dilution protocol was adapted to determine the MIC of each peptide. First, Mueller-Hinton broth (MHB) was passed through an anion exchange column to remove polyanionic species and generate refined MHB. This refined broth was then used in the standard microbroth dilution protocol devised by Hancock et al. for 96 well plates. […] Briefly, bacterial cells were grown overnight in refined MHB at 37° C. and then diluted and allowed to grow again for several hours. Serial dilutions of peptide stocks in water (10 μl) were prepared using clear round-bottom polypropylene 96-well plates. Then 90 μl of bacteria in refined MHB was added to give a final inoculum of 5×10^5 CFU/ml. The plates were then covered with porous tape to reduce evaporation, and incubated for 20-24 hours at 37° C.

[3] = tested on: human red blood cells (RBCs); format: cell-based; conditions: for % Hemolysis at 50 μg/ml: red cells of human, 1 h
From the text: One of the key obstacles that have long impeded the use of AMPs in systemic infections such as sepsis is their tendency to lyse human cells, such as red blood cells (RBCs). Thus, it is critical to minimize hemolytic activity as much as possible to achieve a therapeutic window. […] Of note, in those circumstances where hydrocarbon staples increase hemolytic activity due to increasing hydrophobicity, the alkene moiety can be modified, e.g., by dihydroxylation, to install hydrophilic residues and potentially mitigate hemolysis.
Hemolytic Activity Assay For the determination of hemolytic activity, the following protocol was applied: human blood samples were centrifuged to isolate red blood cells (RBCs), which were then washed and suspended in phosphate-buffered saline to yield a 1% (v/v) suspension. This suspension was then added to serial dilutions of peptide stocks in water in clear round-bottom polypropylene 96-well plates and the plates incubated for 1 hour at 37° C. After incubation, the plates were centrifuged and the supernatant isolated to determine the amount of hemoglobin released using a spectrophotometer (570 nm). The minimum hemolytic concentration (MHC) was determined by assessing the peptide concentration at which there was less than 1% hemoglobin release.

Row | SMILES | helicity [1] [%] | Antimicrobial Activity NIC (μg/ml) E. coli [2] [µg/mL] | antimicrobial activity (in words) ([2]; compared to unstapled buforin II (F10W) and buforin II) | hemolytic activity (in words) [3] | % Hemolysis at 50 μg/ml [3] [%]
1 | CC(C)C[C@H](NC(=O)CNC(=O)[C@H](C)NC(=O)[C@H](CCCNC(=N)N)NC(=O)[C@H](CO)NC(=O)[C@H](CO)NC(=O)[C@H](CCCNC(=N)N)NC(=O)[C@@H](N)[C@@H](C)O)C(=O)N[C@@]1(C)CCCC=CCCC[C@@](C)(C(=O)N[C@@H](CCCNC(=N)N)C(=O)N[C@H](C(=O)N[C@@H](Cc2c[nH]cn2)C(=O)N[C@@H](CCCNC(=N)N)C(=O)N[C@@H](CC(C)C)C(=O)N[C@@H](CC(C)C)C(=O)N[C@@H](CCCNC(=N)N)C(=O)N[C@@H](CCCCN)C(N)=O)C(C)C)NC(=O)[C@H](C(C)C)NC(=O)[C@@H]2CCCN2C(=O)[C@H](Cc2c[nH]c3ccccc23)NC1=O [BFStap(i + 4)7] (H-TRSSRAGL[S5]WPV[S5]RVHRLLRK-NH2; staple 9-13; N-terminus and C-terminus assumed) | 6.9 | 6.3 | greatest increase in antimicrobial activity | low hemolytic activity | 3.4
2 | CC(C)C[C@H](NC(=O)[C@H](CC(C)C)NC(=O)[C@H](CCCNC(=N)N)NC(=O)[C@H](Cc1c[nH]cn1)NC(=O)[C@@H](NC(=O)[C@H](CCCNC(=N)N)NC(=O)CNC(=O)[C@]1(C)CCCC=CCCC[C@](C)(NC(=O)CNC(=O)[C@H](C)NC(=O)[C@H](CCCNC(=N)N)NC(=O)[C@H](CO)NC(=O)[C@H](CO)NC(=O)[C@H](CCCNC(=N)N)NC(=O)[C@@H](N)[C@@H](C)O)C(=O)N[C@@H](CCC(N)=O)C(=O)N[C@@H](Cc2c[nH]c3ccccc23)C(=O)N2CCC[C@H]2C(=O)N1)C(C)C)C(=O)N[C@@H](CCCNC(=N)N)C(=O)N[C@@H](CCCCN)C(N)=O [BFStap(i + 4)8] (H-TRSSRAG[S5]QWP[S5]GRVHRLLRK-NH2; staple 8-12; N-terminus and C-terminus assumed) | 2.3 | 29.2 |  |  | 2.8
3 | CC(C)C[C@@H]1NC(=O)CNC(=O)[C@H](C)NC(=O)[C@@](C)(NC(=O)[C@H](CO)NC(=O)[C@H](CO)NC(=O)[C@H](CCCNC(=N)N)NC(=O)[C@@H](N)[C@@H](C)O)CCCC=CCCC[C@@](C)(C(=O)N[C@@H](Cc2c[nH]c3ccccc23)C(=O)N2CCC[C@H]2C(=O)N[C@H](C(=O)NCC(=O)N[C@@H](CCCNC(=N)N)C(=O)N[C@H](C(=O)N[C@@H](Cc2c[nH]cn2)C(=O)N[C@@H](CCCNC(=N)N)C(=O)N[C@@H](CC(C)C)C(=O)N[C@@H](CC(C)C)C(=O)N[C@@H](CCCNC(=N)N)C(=O)N[C@@H](CCCCN)C(N)=O)C(C)C)C(C)C)NC1=O [BFStap(i + 4)9] (H-TRSS[S5]AGL[S5]WPVGRVHRLLRK-NH2; staple 5-9; N-terminus and C-terminus assumed) | 11.7 | 50.0 |  |  | 2.5
4 | CC(C)C[C@H](NC(=O)[C@H](CC(C)C)NC(=O)[C@H](CCCNC(=N)N)NC(=O)[C@H](Cc1c[nH]cn1)NC(=O)[C@@H](NC(=O)[C@H](CCCNC(=N)N)NC(=O)CNC(=O)[C@@H](NC(=O)[C@@H]1CCCN1C(=O)[C@H](Cc1c[nH]c2ccccc12)NC(=O)[C@H](CCC(N)=O)NC(=O)[C@]1(C)CCCC=CCCC[C@](C)(NC(=O)[C@H](CO)NC(=O)[C@H](CCCNC(=N)N)NC(=O)[C@@H](N)[C@@H](C)O)C(=O)N[C@@H](CCCNC(=N)N)C(=O)N[C@@H](C)C(=O)NCC(=O)N1)C(C)C)C(C)C)C(=O)N[C@@H](CCCNC(=N)N)C(=O)N[C@@H](CCCCN)C(N)=O [BFStap(i + 4)10] (H-TRS[S5]RAG[S5]QWPVGRVHRLLRK-NH2; staple 4-8; N-terminus and C-terminus assumed) | 20.9 | 100 |  |  | 2.4
5 | CC(C)C[C@H](NC(=O)CNC(=O)[C@]1(C)CCCC=CCCC[C@](C)(NC(=O)[C@@H](N)[C@@H](C)O)C(=O)N[C@@H](CO)C(=O)N[C@@H](CO)C(=O)N[C@@H](CCCNC(=N)N)C(=O)N1)C(=O)N[C@@H](CCC(N)=O)C(=O)N[C@@H](Cc1c[nH]c2ccccc12)C(=O)N1CCC[C@H]1C(=O)N[C@H](C(=O)NCC(=O)N[C@@H](CCCNC(=N)N)C(=O)N[C@H](C(=O)N[C@@H](Cc1c[nH]cn1)C(=O)N[C@@H](CCCNC(=N)N)C(=O)N[C@@H](CC(C)C)C(=O)N[C@@H](CC(C)C)C(=O)N[C@@H](CCCNC(=N)N)C(=O)N[C@@H](CCCCN)C(N)=O)C(C)C)C(C)C [BFStap(i + 4)12] (H-T[S5]SSR[S5]GLQWPVGRVHRLLRK-NH2; staple 2-6; N-terminus and C-terminus assumed) | 5.3 | >100 |  |  | 2.4
6 | CC(C)C[C@H](NC(=O)CNC(=O)[C@H](C)NC(=O)[C@]1(C)CCCC=CCCC[C@](C)(N)C(=O)N[C@@H](CCCNC(=N)N)C(=O)N[C@@H](CO)C(=O)N[C@@H](CO)C(=O)N1)C(=O)N[C@@H](CCC(N)=O)C(=O)N[C@@H](Cc1c[nH]c2ccccc12)C(=O)N1CCC[C@H]1C(=O)N[C@H](C(=O)NCC(=O)N[C@@H](CCCNC(=N)N)C(=O)N[C@H](C(=O)N[C@@H](Cc1c[nH]cn1)C(=O)N[C@@H](CCCNC(=N)N)C(=O)N[C@@H](CC(C)C)C(=O)N[C@@H](CC(C)C)C(=O)N[C@@H](CCCNC(=N)N)C(=O)N[C@@H](CCCCN)C(N)=O)C(C)C)C(C)C [BFStap(i + 4)13] (H-[S5]RSS[S5]AGLQWPVGRVHRLLRK-NH2; staple 1-5; N-terminus and C-terminus assumed) | 0 | >100 |  |  | 2.4
7 | CC(C)C[C@H](NC(=O)CNC(=O)[C@H](C)NC(=O)[C@H](CCCNC(=N)N)NC(=O)[C@H](CO)NC(=O)[C@H](CO)NC(=O)[C@H](CCCNC(=N)N)NC(=O)[C@@H](N)[C@@H](C)O)C(=O)N[C@@H](CCC(N)=O)C(=O)N[C@@H](Cc1c[nH]c2ccccc12)C(=O)N1CCC[C@H]1C(=O)N[C@H](C(=O)NCC(=O)N[C@]1(C)CCCCCCC=CCCC[C@@](C)(C(N)=O)NC(=O)[C@H](CCCNC(=N)N)NC(=O)[C@H](CC(C)C)NC(=O)[C@H](CC(C)C)NC(=O)[C@H](CCCNC(=N)N)NC(=O)[C@H](Cc2c[nH]cn2)NC(=O)[C@H](C(C)C)NC1=O)C(C)C [BFStap(i + 7)1] (H-TRSSRAGLQWPVG[R8]VHRLLR[S5]-NH2; staple 14-21; N-terminus and C-terminus assumed) | 16.9 | 10.4 |  |  | 16.6
8 | CC(C)C[C@H](NC(=O)CNC(=O)[C@H](C)NC(=O)[C@H](CCCNC(=N)N)NC(=O)[C@H](CO)NC(=O)[C@H](CO)NC(=O)[C@H](CCCNC(=N)N)NC(=O)[C@@H](N)[C@@H](C)O)C(=O)N[C@@H](CCC(N)=O)C(=O)N[C@@H](Cc1c[nH]c2ccccc12)C(=O)N1CCC[C@H]1C(=O)N[C@H](C(=O)N[C@]1(C)CCCCCCC=CCCC[C@@](C)(C(=O)N[C@@H](CCCCN)C(N)=O)NC(=O)[C@H](CC(C)C)NC(=O)[C@H](CC(C)C)NC(=O)[C@H](CCCNC(=N)N)NC(=O)[C@H](Cc2c[nH]cn2)NC(=O)[C@H](C(C)C)NC(=O)[C@H](CCCNC(=N)N)NC1=O)C(C)C [BFStap(i + 7)2] (H-TRSSRAGLQWPV[R8]RVHRLL[S5]K-NH2; staple 13-20; N-terminus and C-terminus assumed) | 15.6 | 33.3 |  |  | 3.1
9 | CC(C)C[C@H](NC(=O)CNC(=O)[C@H](C)NC(=O)[C@H](CCCNC(=N)N)NC(=O)[C@H](CO)NC(=O)[C@H](CO)NC(=O)[C@H](CCCNC(=N)N)NC(=O)[C@@H](N)[C@@H](C)O)C(=O)N[C@]1(C)CCCCCCC=CCCC[C@@](C)(C(=O)N[C@@H](CCCNC(=N)N)C(=O)N[C@@H](CC(C)C)C(=O)N[C@@H](CC(C)C)C(=O)N[C@@H](CCCNC(=N)N)C(=O)N[C@@H](CCCCN)C(N)=O)NC(=O)[C@H](C(C)C)NC(=O)[C@H](CCCNC(=N)N)NC(=O)CNC(=O)[C@H](C(C)C)NC(=O)[C@@H]2CCCN2C(=O)[C@H](Cc2c[nH]c3ccccc23)NC1=O [BFStap(i + 7)4] (H-TRSSRAGL[R8]WPVGRV[S5]RLLRK-NH2; staple 9-16; N-terminus and C-terminus assumed) | 2.4 | 3.1 |  |  | 57.0
